Each block holds one compound with its values, some of them ahead of it.
Tests used:
KDM4C = biological target: T1, KDM4C (Homo sapiens, UniProt Q9H3R0); test: KDM4C Assay (SAMDI mass spectrometry demethylase assay); type: biochemical; settings: N-terminal GST-tagged KDM4C 2-372; class symbols; read-out: 4C IC50
T1 construct: N-terminal GST-tagged KDM4C^2-372 was purchased from BPS Biosciences; GST (N); purchased BPS Biosciences
T1 sequence (Q9H3R0 2-372): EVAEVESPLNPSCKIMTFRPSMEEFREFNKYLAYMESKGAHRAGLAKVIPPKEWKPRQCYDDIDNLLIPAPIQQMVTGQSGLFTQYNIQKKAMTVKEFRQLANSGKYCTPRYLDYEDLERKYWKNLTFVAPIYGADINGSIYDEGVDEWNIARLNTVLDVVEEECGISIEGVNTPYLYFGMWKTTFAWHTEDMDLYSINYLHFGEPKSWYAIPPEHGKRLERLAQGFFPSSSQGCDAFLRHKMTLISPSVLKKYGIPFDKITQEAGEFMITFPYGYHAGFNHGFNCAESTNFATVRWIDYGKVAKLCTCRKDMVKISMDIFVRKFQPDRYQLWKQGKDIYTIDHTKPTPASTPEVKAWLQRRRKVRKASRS
Protocol: (§1) N-terminal GST-tagged KDM4C^2-372 was purchased from BPS Biosciences. Peptides were synthesized by BioPeptide and all other reagents were purchased from Sigma-Aldrich at the highest level of purity possible. Assays were performed in a 50 μL volume in 384-well V-bottom polypropylene microplates (Greiner) at 25° C. Optimized 1× assay buffer was 50 mM HEPES (pH=8.0), 100 μM sodium ascorbate, 20 mM NaCl, 10 μM ammonium iron sulfate, 1 mM tris(2-carboxyethyl)phosphine (TCEP), 0.002% Tween-20, and 0.005% BSG. For compound screening, 35 μL of KDM4C^2-372 (final concentration, f.c.=5 nM) was added using a Multidrop Combi and preincubated with 1 μL of test compound (f.c.=10 μM) for 30 minutes and subsequently 15 μL of peptide with the following sequence NH2-ARTKQTAR(Kme3)STGGKAPRKQLA(K-Ahx-Biotin)-amide (f.c.=500 nM) and 2-oxoglutarate (f.c.=15 μM) was added by Multidrop Combi to begin the reaction. Reactions proceeded for 150 minutes and were stopped by the addition of 5 μL of formic acid (f.c.=0.5%) using a Multidrop Combi and then analyzed by SAMDI Tech Inc.
(§2) SAMDI Tech analyzed all reactions using self-assembled monoloayer desorption/ionization technology as previously described (Gerard-Levin Z A, Scholle M D, Eisenberg A H, et al.: High-throughput screening of small molecule libraries using SAMDI mass spectrometry. ACS Comb Sci 2011; 13:347-350). Briefly, a 2 μL sample of the stopped demethylase reactions were transferred to a SAMDI array coated with 384 biotin-neutravidin spots using a 384-channel pipet station. The SAMDI arrays were incubated for 1 h in a humidified chamber, followed by washing of the surface with deionized ultra-filtered water (DIUF) and drying under nitrogen. A matrix of 30 mg/ml 2′,4′,6′-Trihydroxyacetophenone monohydrate (THAP) in acetone was applied using a TPP Mosquito 1.2 μL tip by dispensing 50 nL on each of the 384 spots on the array. SAMDI-MS was run using acquisition method ReflectorPositiveUTX. The % conversion of substrate to product was calculated using the AUC of the substrate and product peptide peaks.
(§3) An IC50 value was determined by contacting various concentrations of a test compound with one of the KDM4A, KDM4C or KDMSC enzyme constructs and plotting a dose-response curve which associates the amount of inhibition of the enzyme relative to the concentration of the test compound. From the curve, the IC50 value (which represents the concentration of the test compound necessary to inhibit maximal enzymatic activity by 50%) was determined. Additionally, the slope of the linear range of the plotted curve, which indicates the speed with which the curve rises between the minimum and maximum, was calculated.

KDM4A = biological target: T2, KDM4A (Homo sapiens, UniProt O75164); test: KDM4A Assay (SAMDI mass spectrometry demethylase assay); type: biochemical; settings: N-terminal His-tagged KDM4A 1-350; class symbols; read-out: 4A IC50
T2 construct: N-terminal His-tagged KDM4A^1-350 was purchased from BPS Biosciences; His (N); purchased BPS Biosciences
T2 sequence (O75164 1-350): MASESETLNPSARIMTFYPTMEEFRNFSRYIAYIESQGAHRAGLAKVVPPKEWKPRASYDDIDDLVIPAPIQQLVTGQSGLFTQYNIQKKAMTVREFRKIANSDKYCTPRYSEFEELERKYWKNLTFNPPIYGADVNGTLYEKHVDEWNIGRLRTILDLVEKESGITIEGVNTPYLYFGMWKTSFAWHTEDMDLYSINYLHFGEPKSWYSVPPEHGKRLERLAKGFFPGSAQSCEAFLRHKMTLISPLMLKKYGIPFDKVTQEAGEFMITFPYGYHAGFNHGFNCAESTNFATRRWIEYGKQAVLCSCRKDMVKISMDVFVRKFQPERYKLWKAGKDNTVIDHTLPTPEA
Protocol: as §1, with “His-tagged KDM4A^1-350” for “GST-tagged KDM4C^2-372”, “KDM4A^1-350” for “KDM4C^2-372”, “NH2-ARTKQTAR(Kme2)STGGKAPRKQLA(K-Ahx-Biotin)-amide (f.c.=600” for “NH2-ARTKQTAR(Kme3)STGGKAPRKQLA(K-Ahx-Biotin)-amide (f.c.=500”, “(f.c.=5” for “(f.c.=15”, “120” for “150”
as §2, §3

SMILES: Cc1nn(C2CCN(CC(F)(F)F)CC2)cc1Nc1cnccc1C(=O)O [Compound 99, 3-(3-methyl-1-(1-(2,2,2-trifluoroethyl)piperidin-4-yl)-1H-pyrazol-4-ylamino)isonicotinic acid]
IC50 (KDM4C): 1000 to 10000 nM | IC50 (KDM4A): 100 to 1000 nM

SMILES: COc1ccccc1-n1cc(C)c(Nc2cnccc2C(=O)O)n1 [Compound 63, 3-((1-(2-methoxyphenyl)-4-methyl-1H-pyrazol-3-yl)amino) isonicotinic acid]
IC50 (KDM4C): 100 to 1000 nM | IC50 (KDM4A): 100 to 1000 nM

SMILES: Cn1cc(Nc2cnccc2C(=O)O)c(-c2ccccc2)n1 [Compound 13, 3-((1-methyl-3-phenyl-1H-pyrazol-4-yl)amino) isonicotinic acid]
IC50 (KDM4C): 100 to 1000 nM | IC50 (KDM4A): 1000 to 10000 nM

SMILES: Cn1nc(-c2ccc(Cl)cc2)cc1Nc1cnccc1C(=O)O [Compound 24, 3-((3-(4-Chlorophenyl)-1-methyl-1H-pyrazol-5-yl)amino) isonicotinic acid]
IC50 (KDM4C): 1000 to 10000 nM | IC50 (KDM4A): 100 to 1000 nM

SMILES: Cc1c(Nc2cnccc2C(=O)O)cnn1C1CCN(CC(F)(F)F)CC1 [Compound 100, 3-(5-methyl-1-(1-(2,2,2-tri-fluoro-ethyl)piperidin-4-yl)-1H-pyrazol-4-ylamino)isonicotinic acid]
IC50 (KDM4C): 100 to 1000 nM | IC50 (KDM4A): 100 to 1000 nM

SMILES: Cc1nn(-c2ccccc2C#N)cc1Nc1cnccc1C(=O)O [Compound 70, 3-((1-(2-cyanophenyl)-3-methyl-1H-pyrazol-4-yl)amino) isonicotinic acid]
IC50 (KDM4C): 1000 to 10000 nM | IC50 (KDM4A): 100 to 1000 nM

SMILES: CC(C)n1nc(-c2ccccc2)cc1Nc1cnccc1C(=O)O [Compound 22, 3-((1-Isopropyl-3-phenyl-1H-pyrazol-5-yl)amino)isonicotinic acid]
IC50 (KDM4C): 100 to 1000 nM | IC50 (KDM4A): 100 to 1000 nM

SMILES: O=C(O)c1ccncc1Nc1cc(-c2ccccc2)nn1C1CCOCC1 [Compound 23, 3-((3-Phenyl-1-(tetrahydro-2H-pyran-4-yl)-1H-pyrazol-5-yl)amino)isonicotinic acid]
IC50 (KDM4C): 100 to 1000 nM | IC50 (KDM4A): 1000 to 10000 nM

SMILES: Cn1ncc(-c2ccccc2F)c1Nc1cnccc1C(=O)O [Compound 12, 3-((4-(2-fluorophenyl)-1-methyl-1H-pyrazol-5-yl)amino) isonicotinic acid]
IC50 (KDM4C): 1 to 100 nM | IC50 (KDM4A): 100 to 1000 nM

SMILES: O=C(O)c1ccncc1Nc1nn(-c2ccccc2)cc1-c1ccccc1 [Compound 42, 3-((1,4-diphenyl-1H-pyrazol-3-yl)amino)isonicotinic acid]
IC50 (KDM4C): 100 to 1000 nM | IC50 (KDM4A): 100 to 1000 nM

Results, then the compound that gave them:

IC50 (KDM4C): 10000 to 100000 nM | IC50 (KDM4A): 10000 to 100000 nM
SMILES: Cc1c(-c2ccccc2)nn(CCN2CCC(F)(F)CC2)c1Nc1cnccc1C(=O)O [Compound 66, 3-((1-(2-(4,4-difluoropiperidin-1-yl)ethyl)-4-methyl-3-phenyl-1H-pyrazol-5-yl)amino)isonicotinic acid]

IC50 (KDM4C): 1000 to 10000 nM | IC50 (KDM4A): 1000 to 10000 nM
SMILES: O=C(O)c1ccncc1Nc1cn(CCN2CCC(F)(F)CC2)nc1-c1ccccc1 [Compound 17, 3-((1-(2-(4,4-Difluoropiperidin-1-yl)ethyl)-3-phenyl-1H-pyrazol-4-yl)amino)isonicotinic acid]

IC50 (KDM4C): 100 to 1000 nM | IC50 (KDM4A): 100 to 1000 nM
SMILES: O=C(O)c1ccncc1Nc1nn(CCN2CCC(F)(F)CC2)cc1-c1ccccc1 [Compound 14, 3-((1-(2-(4,4-Difluoropiperidin-1-yl)ethyl)-4-phenyl-1H-pyrazol-3-yl)amino)isonicotinic acid]

IC50 (KDM4C): 10000 to 100000 nM | IC50 (KDM4A): 10000 to 100000 nM
SMILES: O=C(O)c1ccncc1Nc1c(-c2ccccc2)cnn1CCN1CCC(F)(F)CC1 [Compound 15, 3-((1-(2-(4,4-difluoropiperidin-1-yl)ethyl)-4-phenyl-1H-pyrazol-5-yl)amino)isonicotinic acid]

IC50 (KDM4C): 100 to 1000 nM | IC50 (KDM4A): 100 to 1000 nM
SMILES: Cn1ncc(-c2ccccc2)c1Nc1cnccc1C(=O)O [Compound 1]

IC50 (KDM4C): 100 to 1000 nM | IC50 (KDM4A): 100 to 1000 nM
SMILES: CN1CCN(CCn2ncc(-c3ccccc3)c2Nc2cnccc2C(=O)O)CC1 [Compound 35, 3-((1-(2-(4-methylpiperazin-1-yl)ethyl)-4-phenyl-1H-pyrazol-5-yl)amino)isonicotinic acid]

IC50 (KDM4C): 1000 to 10000 nM | IC50 (KDM4A): 1000 to 10000 nM
SMILES: Cn1cc(-c2ccccc2)c(Nc2cnccc2C(=O)O)n1 [Compound 3]

Reference: patent US20170291890A1 (Epizyme, Inc., priority 2014, published 2017)
